Source: ChEMBL document CHEMBL4359906, “Design and synthesis of new N-terminal fatty acid modified-antimicrobial peptide analogues with potent in vitro biological activity” (Eur J Med Chem, 2019)
≈ marks a conversion by molar mass, not a printed value. Calls of active or inactive are those of the source. The calls are words filed in the database; no cut-off is given here.

Experiments:
Pseudomonas aeruginosa [1] = test: Antibiofilm activity against Pseudomonas aeruginosa ATCC 27853 after 24 hrs by crystal violet staining based assay; format: functional, organism-based
Escherichia coli [2] = test: Induction of inner membrane permeabilization in Escherichia coli ATCC 43837 assessed as increase in ONPG release at 1 to 2 times of MIC by ONPG dye based assay; format: organism-based
Staphylococcus aureus [3] = test: Ratio of antibacterial activity against Staphylococcus aureus ATCC 25923 in presence of FeCl3 to antibacterial activity against Staphylococcus aureus ATCC 25923; format: functional
Klebsiella pneumoniae [4] = test: Antibacterial activity against Klebsiella pneumoniae ATCC 700603 after 18 hrs by CLSI based broth microdilution method; format: functional; settings: Klebsiella pneumoniae, 700603, 18 h
Erythrocyte = test: Hemolytic activity in human RBC measured after 1 hr by microplate reader analysis; format: ADME, cell-based
Escherichia coli [5] = test: Induction of membrane disruption in Escherichia coli ATCC 25922 assessed as corrugated membrane surface at 4 times of MIC after 2 hrs by SEM analysis; format: functional, organism-based
Klebsiella pneumoniae [6] = test: Potentiation of rifampicin-induced antibacterial activity against Klebsiella pneumoniae ATCC 700603 assessed as FICI after 18 hrs by checker board assay; format: functional
Escherichia coli [7] = test: Induction of membrane disruption in Escherichia coli ATCC 25922 assessed as fracture in membrane at 4 times of MIC after 2 hrs by SEM analysis; format: functional, organism-based
Escherichia coli [8] = test: Antimicrobial activity against Escherichia coli ATCC 25922 at 1 mM preincubated for 6 hrs in presence of 2 ug/ml chymotrypsin and measured after 18 hrs by microplate reader analysis; format: functional, organism-based
Pseudomonas aeruginosa [9] = test: Antibiofilm activity against Pseudomonas aeruginosa ATCC 27853 at 0.25 to 2 times of MIC after 24 hrs by crystal violet staining based assay; format: functional, organism-based
Escherichia coli [10] = test: Induction of inner membrane permeabilization in Escherichia coli ATCC 43837 assessed as increase in ONPG release at 4 times of MIC by ONPG dye based assay; format: organism-based
Escherichia coli [11] = test: Ratio of antibacterial activity against Escherichia coli ATCC 25922 in presence of NaCl to antibacterial activity against Escherichia coli ATCC 25922; format: functional
Escherichia coli [12] = test: Antibacterial activity against Escherichia coli ATCC 43837 after 18 hrs by CLSI based broth microdilution method; format: functional; settings: ATCC 43837, 18 h
Escherichia coli [13] = test: Induction of membrane disruption in Escherichia coli ATCC 25922 assessed as degeneration in membrane at 4 times of MIC after 2 hrs by SEM analysis; format: functional, organism-based
[14] = Selectivity index, ratio of MHC10 for human RBC to geometric mean of peptide MIC for gram negative bacteria; format: toxicity; settings: human red blood cells, read-out: Selectivity Index
Staphylococcus aureus [15] = test: Antibacterial activity against methicillin-resistant Staphylococcus aureus 936 after 18 hrs by CLSI based broth microdilution method; format: functional; settings: Staphylococcus aureus, 936, 18 h
Pseudomonas aeruginosa [16] = test: Potentiation of rifampicin-induced antibacterial activity against Pseudomonas aeruginosa ATCC 27853 assessed as FICI after 18 hrs by checker board assay; format: functional
Escherichia coli [17] = test: Disruption of membrane integrity in Escherichia coli ATCC 25922 assessed as membrane damage by measuring PI fluorescence at 4 times of MIC incubated for 1 hr by PI dye based flow cytometric analysis (reference value: 1.35%); format: functional
Staphylococcus aureus [18] = test: Antibiofilm activity against Staphylococcus aureus ATCC 25923 after 24 hrs by crystal violet staining based assay; format: functional, organism-based
Escherichia coli [19] = test: Antibacterial activity against Escherichia coli ATCC 25922 at 0.5 times MIC incubated for 18 hrs measured for 15 passages by CLSI based broth microdilution method; format: functional, organism-based
Escherichia coli [20] = test: Potentiation of rifampicin-induced antibacterial activity against Escherichia coli ATCC 25922 assessed as FICI after 18 hrs by checker board assay; format: functional
Staphylococcus aureus [21] = test: Ratio of antibacterial activity against Staphylococcus aureus ATCC 25923 in presence of MgCl2 to antibacterial activity against Staphylococcus aureus ATCC 25923; format: functional
Escherichia coli [22] = test: Induction of outer membrane permeabilization in Escherichia coli ATCC 25922 measured up to 12 mins by NPN-dye based assay; format: organism-based
Staphylococcus aureus [23] = test: Ratio of antibacterial activity against Staphylococcus aureus ATCC 25923 in presence of KCl to antibacterial activity against Staphylococcus aureus ATCC 25923; format: functional
Escherichia coli [24] = test: Induction of ROS generation in Escherichia coli ATCC 25922; format: functional, organism-based
[25] = Selectivity index, ratio of MHC10 for human RBC to geometric mean of peptide MIC for gram positive bacteria; format: toxicity; settings: human red blood cells, read-out: Selectivity Index
Escherichia coli [26] = test: Ratio of MIC for Escherichia coli ATCC 25922 preincubated for 6 hrs in presence of 10% mouse serum and measured after 18 hrs to MIC for antibacterial activity against Escherichia coli ATCC 25922 after 18 hrs; format: functional
Pseudomonas aeruginosa [27] = test: Antibacterial activity against Pseudomonas aeruginosa ATCC 27853 after 18 hrs by CLSI based broth microdilution method; format: functional; settings: ATCC 27853, 18 h
Escherichia coli [28] = test: Antibiofilm activity against Escherichia coli ATCC 25922 after 24 hrs by crystal violet staining based assay; format: functional, organism-based
Escherichia coli [29] = test: Potentiation of polymyxin B-induced antibacterial activity against Escherichia coli ATCC 25922 assessed as FICI after 18 hrs by checker board assay; format: functional
Escherichia coli [30] = test: Ratio of MIC for Escherichia coli ATCC 25922 preincubated for 1 hr in presence of 10% mouse serum and measured after 18 hrs to MIC for antibacterial activity against Escherichia coli ATCC 25922 after 18 hrs; format: functional
Staphylococcus aureus [31] = test: Ratio of antibacterial activity against Staphylococcus aureus ATCC 25923 in presence of NaCl to antibacterial activity against Staphylococcus aureus ATCC 25923; format: functional
Escherichia coli [32] = test: Induction of membrane disruption in Escherichia coli ATCC 25922 assessed as rough membrane surface at 4 times of MIC after 2 hrs by SEM analysis; format: functional, organism-based
Pseudomonas aeruginosa [33] = test: Potentiation of polymyxin B-induced antibacterial activity against Pseudomonas aeruginosa ATCC 27853 assessed as FICI after 18 hrs by checker board assay; format: functional
Klebsiella pneumoniae [34] = test: Potentiation of polymyxin B-induced antibacterial activity against Klebsiella pneumoniae ATCC 700603 assessed as FICI after 18 hrs by checker board assay; format: functional
DNA = test: Binding affinity to Escherichia coli ATCC 25922 genomic DNA after 30 mins by agarose gel electrophoresis; format: nucleic-acid assay
Escherichia coli [35] = test: Antibiofilm activity against Escherichia coli ATCC 25922 at 2 times MIC after 24 hrs by crystal violet staining based assay; format: functional, organism-based
Escherichia coli [36] = test: Ratio of antibacterial activity against Escherichia coli ATCC 25922 in presence of MgCl2 to antibacterial activity against Escherichia coli ATCC 25922; format: functional
Escherichia coli [37] = test: Antimicrobial activity against Escherichia coli ATCC 25922 at 1 mM preincubated for 6 hrs in presence of 2000 ug/ml trypsin and measured after 18 hrs by microplate reader analysis; format: functional, organism-based
Bacillus subtilis = test: Antibacterial activity against Bacillus subtilis ATCC 23857 after 18 hrs by CLSI based broth microdilution method; format: functional; settings: ATCC 23857, 18 h
Escherichia coli [38] = test: Disruption of membrane integrity in Escherichia coli ATCC 25922 assessed as membrane damage by measuring PI fluorescence at 2 times of MIC incubated for 1 hr by PI dye based flow cytometric analysis (reference value: 1.35%); format: functional

SMILES: CCCCCCCCCCCC(=O)NC(Cc1cn(CCCC[C@H](NC(C)=O)C(=O)NCC(=O)N[C@@H](CC(C)C)C(=O)N[C@@H](CC(C)C)C(=O)N[C@H](CCCCN)C(=O)N[C@@H](CCCNC(=N)N)C(=O)N[C@H](C(=O)N[C@H](CCCCN)C(=O)N[C@H](C(=O)N[C@@H](CC(C)C)C(=O)N[C@@H](CC(C)C)C(N)=O)[C@@H](C)O)[C@@H](C)CC)nn1)C(=O)NCC(=O)N[C@@H](CC(C)C)C(=O)N[C@@H](CC(C)C)C(=O)N[C@H](CCCCN)C(=O)N[C@@H](CCCNC(=N)N)C(=O)N[C@H](C(=O)N[C@H](CCCCN)C(=O)N[C@H](C(=O)N[C@@H](CC(C)C)C(=O)N[C@@H](CC(C)C)C(N)=O)[C@@H](C)O)[C@@H](C)CC (some centres not stated)
- inhibition (Pseudomonas aeruginosa [1]): Dose-dependent effect
- Activity (Escherichia coli [2]): Active
- Ratio (Staphylococcus aureus [3]): 2 - 4
- MIC (Klebsiella pneumoniae [4]): 8 µM (≈ 22.2 µg/mL)
- MHC10 (Erythrocyte): 16 µM
- Activity (Escherichia coli [5]): Active
- fractional inhibitory concentration index (FICI) (Klebsiella pneumoniae [6]): 0.5
- Activity (Escherichia coli [7]): Active
- Activity (Escherichia coli [8]): Active
- inhibition (Pseudomonas aeruginosa [9]): Active
- Activity (Escherichia coli [10]): Active
- Ratio (Escherichia coli [11]): 2 - 4
- MIC (Escherichia coli [12]): 8 µM (≈ 22.2 µg/mL)
- Activity (Escherichia coli [13]): Active
- selectivity ratio [14]: 2
- MIC (Staphylococcus aureus [15]): 16 µM (≈ 44.5 µg/mL)
- fractional inhibitory concentration index (FICI) (Pseudomonas aeruginosa [16]): 0.3125
- Activity (Escherichia coli [17]): 88.9%
- inhibition (Staphylococcus aureus [18]): Dose-dependent effect
- Activity (Escherichia coli [19]): Active
- fractional inhibitory concentration index (FICI) (Escherichia coli [20]): 0.5625
- Ratio (Staphylococcus aureus [21]): 2 - 4
- Activity (Escherichia coli [22]): Dose-dependent effect
- Ratio (Staphylococcus aureus [23]): 2 - 4
- Activity (Escherichia coli [24]): inactive
- selectivity ratio [25]: 1.85
- Ratio (Escherichia coli [26]): 4
- MIC (Pseudomonas aeruginosa [27]): 8 µM (≈ 22.2 µg/mL)
- inhibition (Escherichia coli [28]): Dose-dependent effect
- fractional inhibitory concentration index (FICI) (Escherichia coli [29]): 0.3125
- Ratio (Escherichia coli [30]): 2
- Ratio (Staphylococcus aureus [31]): 2 - 4
- Activity (Escherichia coli [32]): Active
- fractional inhibitory concentration index (FICI) (Pseudomonas aeruginosa [33]): 0.1875
- fractional inhibitory concentration index (FICI) (Klebsiella pneumoniae [34]): 0.3125
- Activity (DNA): Dose-dependent effect
- inhibition (Escherichia coli [35]): Active
- Ratio (Escherichia coli [36]): 2 - 4
- Activity (Escherichia coli [37]): Active
- MIC (Bacillus subtilis): 2 µM (≈ 5.56 µg/mL)
- Activity (Escherichia coli [38]): 60.7%

SMILES: CCCCCCCC(=O)NC(Cc1cn(CCCC[C@H](NC(C)=O)C(=O)NCC(=O)N[C@@H](CC(C)C)C(=O)N[C@@H](CC(C)C)C(=O)N[C@H](CCCCN)C(=O)N[C@@H](CCCNC(=N)N)C(=O)N[C@H](C(=O)N[C@H](CCCCN)C(=O)N[C@H](C(=O)N[C@@H](CC(C)C)C(=O)N[C@@H](CC(C)C)C(N)=O)[C@@H](C)O)[C@@H](C)CC)nn1)C(=O)NCC(=O)N[C@@H](CC(C)C)C(=O)N[C@@H](CC(C)C)C(=O)N[C@H](CCCCN)C(=O)N[C@@H](CCCNC(=N)N)C(=O)N[C@H](C(=O)N[C@H](CCCCN)C(=O)N[C@H](C(=O)N[C@@H](CC(C)C)C(=O)N[C@@H](CC(C)C)C(N)=O)[C@@H](C)O)[C@@H](C)CC (some centres not stated)
- inhibition (Pseudomonas aeruginosa [1]): Dose-dependent effect
- Activity (Escherichia coli [2]): Active
- Ratio (Staphylococcus aureus [3]): 2 - 4
- MIC (Klebsiella pneumoniae [4]): 16 µM (≈ 43.6 µg/mL)
- MHC10 (Erythrocyte): 128 µM
- Activity (Escherichia coli [5]): Active
- fractional inhibitory concentration index (FICI) (Klebsiella pneumoniae [6]): 0.5625
- Activity (Escherichia coli [7]): Active
- Activity (Escherichia coli [8]): Active
- inhibition (Pseudomonas aeruginosa [9]): Active
- Activity (Escherichia coli [10]): Active
- Ratio (Escherichia coli [11]): 2 - 4
- MIC (Escherichia coli [12]): 8 µM (≈ 21.8 µg/mL)
- Activity (Escherichia coli [13]): Active
- selectivity ratio [14]: 14.2
- MIC (Staphylococcus aureus [15]): 16 µM (≈ 43.6 µg/mL)
- fractional inhibitory concentration index (FICI) (Pseudomonas aeruginosa [16]): 0.5625
- Activity (Escherichia coli [17]): 32.1%
- inhibition (Staphylococcus aureus [18]): Dose-dependent effect
- Activity (Escherichia coli [19]): Active
- fractional inhibitory concentration index (FICI) (Escherichia coli [20]): 0.5625
- Ratio (Staphylococcus aureus [21]): 2 - 4
- Activity (Escherichia coli [22]): Dose-dependent effect
- Ratio (Staphylococcus aureus [23]): 2 - 4
- Activity (Escherichia coli [24]): inactive
- selectivity ratio [25]: 11.3
- Ratio (Escherichia coli [26]): 4
- MIC (Pseudomonas aeruginosa [27]): 8 µM (≈ 21.8 µg/mL)
- inhibition (Escherichia coli [28]): Dose-dependent effect
- fractional inhibitory concentration index (FICI) (Escherichia coli [29]): 0.3125
- Ratio (Escherichia coli [30]): 2
- Ratio (Staphylococcus aureus [31]): 2 - 4
- Activity (Escherichia coli [32]): Active
- fractional inhibitory concentration index (FICI) (Pseudomonas aeruginosa [33]): 0.5625
- fractional inhibitory concentration index (FICI) (Klebsiella pneumoniae [34]): 0.3125
- Activity (DNA): Dose-dependent effect
- inhibition (Escherichia coli [35]): Active
- Ratio (Escherichia coli [36]): 2 - 4
- Activity (Escherichia coli [37]): Active
- MIC (Bacillus subtilis): 2 µM (≈ 5.45 µg/mL)
- Activity (Escherichia coli [38]): 13.4%
